SMILES strings stand for the structures.

In the first assay the test system is Leishmania donovani. The assay is described as follows: Antileishmanial activity against Leishmania donovani axenic amastigotes after 72 hrs by serial dilution method. In kind it is functional, organism-based.
Consider `C[N+](C)(C)CCOP(=O)([O-])OCC(COCn1nnc2ccccc21)OCc1ccccc1` (stereo unspecified), for which the IC50 (usually the point on the concentration scale where inhibition reaches its midpoint) was > 50 µM.
`C[N+](C)(C)CCOP(=O)([O-])OCC(COCn1nnc2ccccc21)OCc1cccc2ccccc12` (stereo unspecified) showed an IC50 of 33.1 µM.
Still for that read-out and setting: in the case of `CCCCOC(COCc1ccccc1)COP(=O)([O-])OCC[N+](C)(C)C` (stereo unspecified) it was > 50 µM; in that of `C[N+](C)(C)CCOP(=O)([O-])OCC(COCc1ccccc1)Oc1ccccc1` (stereo unspecified), > 50 µM.
For the molecule `CCCCCCCCCCCCCCCCOP(=O)([O-])OCC[N+](C)(C)C` [MILTEFOSINE], the IC50 came out at 0.22 µM.
`Cc1noc(C)c1COCC(COP(=O)([O-])OCC[N+](C)(C)C)OCc1cccc2ccccc12` (stereo unspecified): the IC50 is > 50 µM.
`C[N+](C)(C)CCOP(=O)([O-])OCC(COCc1ccccc1)OCc1cccc2ccccc12` (stereo unspecified) registered an IC50 of 13.8 µM.
The molecule `C=CCOCC(COP(=O)([O-])OCC[N+](C)(C)C)OCCCCCCCCCCCCCCCCCC` (stereo unspecified) gave an IC50 of 6.75 µM.
Regarding `CCCCOC(COCn1nnc2ccccc21)COP(=O)([O-])OCC[N+](C)(C)C` (stereo unspecified), the IC50 was > 50 µM.
On to `Cc1noc(C)c1COCC(COP(=O)([O-])OCC[N+](C)(C)C)OCc1ccccc1` (stereo unspecified), for which the concentration for half-maximal inhibition (IC50) was > 50 µM.
Same read-out and setting: in the case of `Cc1noc(C)c1COCC(COP(=O)([O-])OCC[N+](C)(C)C)Oc1ccccc1` (stereo unspecified) it was > 50 µM; in that of `CCCCOC(COCc1c(C)noc1C)COP(=O)([O-])OCC[N+](C)(C)C` (stereo unspecified), > 50 µM.
On the same count and under the same terms, in the case of `C[N+](C)(C)CCOP(=O)([O-])OCC(COCc1ccccc1)OCc1ccccc1` (stereo unspecified) it was 4.15 µM.
Turning to `CCCCCCCCCCCCCCCCCCOC(COCc1ccccc1)COP(=O)([O-])OCC[N+](C)(C)C` (stereo unspecified), it took 1.6 µM to reach half-maximal inhibition (IC50).
The molecule `C=CCOCC(COP(=O)([O-])OCC[N+](C)(C)C)OCc1cccc2ccccc12` (stereo unspecified) came in with an IC50 of 26.7 µM.
The same measure, in the same setting: in the case of `C=CCOCC(COP(=O)([O-])OCC[N+](C)(C)C)OCCCC` (stereo unspecified) it was 42.5 µM.
On to `C[N+](C)(C)CCOP(=O)([O-])OCC(COCn1nnc2ccccc21)Oc1ccccc1` (stereo unspecified), for which the IC50 is 28.2 µM.
Still for that read-out and setting: in the case of `CCCCCCCCCCCCCCCCCCOC(COCn1nnc2ccccc21)COP(=O)([O-])OCC[N+](C)(C)C` (stereo unspecified) it was 0.66 µM; in that of `CCCCCCCCCCCCCCCCCCOC(COCc1c(C)noc1C)COP(=O)([O-])OCC[N+](C)(C)C` (stereo unspecified), 1.3 µM.

The next assay has as its system Leishmania donovani. The assay can be described thus: Antileishmanial activity against Leishmania donovani infected macrophage. In kind it is functional, organism-based.
In turn, `CCCCCCCCCCCCCCCCOP(=O)([O-])OCC[N+](C)(C)C` [MILTEFOSINE] displayed an IC50 of 1.74 µM.
The same measure, in the same setting: in the case of `CCCCCCCCCCCCCCCCCCOC(COCn1nnc2ccccc21)COP(=O)([O-])OCC[N+](C)(C)C` (stereo unspecified) it was 0.78 µM.

(Values after ChEMBL document CHEMBL1155926, “Parallel synthesis and antileishmanial activity of ether-linked phospholipids” (Bioorg Med Chem Lett, 2008).)
